Assay results reported in patent publication US10202411B2, “3′-substituted methyl or alkynyl nucleosides nucleotides for the treatment of HCV” (priority 2014, dated 2019).
pEC50, pIC50: −log10 of the molar value. Where two headings read alike, the source gives them in different places.

Tests used:
[1] = Pharmacokinetics of liver triphosphate following a single oral dose in CD-1 mice; type: in vivo; conditions: CD-1 male mice; for Ms Liver TP AUC: integrated concentration; for Ms Liver TP Cmax: single point concentration
Experimental: A single oral dose of Compound 1 at 10 mg/kg in PEG 200 (dose volume 5 mL/kg) was administered to nine CD-1 male mice. Five untreated animals were used for the collection of control liver. Liver samples were collected from three animals per time point at 4, 12 and 24 hours post dose. Liver specimens were collected from all animals immediately after the incision. Freezing forceps stored in liquid nitrogen were used to freeze the liver before excision.
Liver samples were analyzed for the active species nucleoside triphosphate by LC-MS/MS. The triphosphate levels were assayed by homogenizing (on ice) a known weight of mouse liver with 4× volume of 0.95 M trichloroacetic acid (TCA). Internal standard solution was added to the homogenate followed by neutralization with 20% ammonium hydroxide solution and addition of 500 μL 1% formic acid. The tissue samples were extracted by weak anion exchange solid phase extraction (SPE). Post extraction, the eluates were evaporated under nitrogen, followed by reconstitution before injection onto the LC-MS/MS system. The samples were chromatographed on a Luna NH2 column using a gradient system of ammonium acetate (1 mM to 20 mM and pH 8.0 to pH 10.0) in water and acetonitrile (70:30). The analyte was detected and quantified by tandem mass spectrometry in positive ion mode on an API4000 equipped with a Turbo Ionspray® interface.

Zluc cells = assay: Cytotoxicity evaluation, CellTiter-Blue Cell Viability Assay; conditions: read-out: HCV Replicon CC50; Zluc cells, CellTiter-Blue cell viability
HCV genotype 1b replicon = assay: HCV replicon assay (Zluc luciferase reporter); type: cell-based; conditions: read-out: HCV Replicon EC50
Experimental: Huh-7-derived cell line (Zluc) that harbors an HCV genotype 1b replicon and a luciferase reporter gene was grown in Dulbecco's Modified Eagle Medium (DMEM) supplemented with 10% fetal bovine serum, 2 mM GlutaMAX, 1% MEM nonessential amino acids, 100 IU/mL penicillin, 100 μg/mL streptomycin, and 0.5 mg/mL Geneticin® (G418). For dose response testing the cells were seeded in 96-well plates at 7.5×10^3 cells per well in a volume of 50 μL, and incubated at 37° C./5% CO2. Drug solutions were made up freshly in Huh-7 media as 2× stocks. Ten additional 5-fold dilutions were prepared from these stocks in DMEM without G418. At least three hours after Zluc cells were seeded, drug treatment was initiated by adding 50 μL of drug dilutions to the plates in duplicate. Final concentrations of drug ranged from 100 μM to 0.0000512 μM. Cells were then incubated at 37° C./5% CO2. Alternatively, compounds were tested at two concentrations (1 μM and 10 μM). […] After 72 hours of incubation, the inhibition of HCV replication was measured by quantification of photons emitted after mono-oxygenation of 5′-fluoroluciferin to oxyfluoroluciferin by firefly luciferase. For this, media was removed from the plates via gentle tapping. Fifty microliters of ONE-glo luciferase assay reagent was added to each well. The plates were shaken gently for 3 min at room temperature and luminescence was measured on a Victor^3 V 1420 multilabel counter (Perkin Elmer) with a 1 second read time using a 700 nm cut-off filter. The EC50 values were calculated from dose response curves from the resulting best-fit equations determined by Microsoft Excel and XLfit 4.1 software. When screening at two fixed concentrations, the results were expressed as % inhibition at 1 μM and 10 μM.

[2] = molecular target: wild-type HCV genotype 1b NS5B protein (Hepatitis C virus genotype 1b (isolate Con1) (HCV), UniProt Q9WMX2); assay: HCV polymerase enzyme assay, wild-type; type: biochemical; conditions: nucleoside triphosphate form, recombinant HCV genotype 1b NS5B
From the text: (§1) Test compounds in the form of nucleoside triphosphates were examined for inhibitory activity against purified HCV polymerase in a standard assay. Bacterial expression constructs encoding the approximately 65 kDa HCV genotype 1b NS5B protein were used to generate recombinant HCV polymerases (with a deletion of the 21 carboxy terminal amino acids). Both the wild-type genotype 1b protein and protein containing the S282T mutation were expressed and purified for use in the enzymatic activity assay.
(§2) The enzymatic activity assay measured the inhibitory effect of increasing concentrations of test compound on the incorporation of α-[^33P]-labeled nucleotide into trichloroacetic acid-precipitable material. Recombinant polymerase and synthetic RNA template were combined in reaction buffer containing ribonucleoside triphosphates, α-[^33P]-labeled nucleotide and eight concentrations of test compound in three-fold dilutions. Reactions were incubated for two hours at 30° C.
(§3) Reactions were terminated by the addition of ice-cold trichloroacetic acid and sodium pyrophosphate to promote precipitation of newly-synthesized ribonucleic acid. Precipitable material from the reactions was collected by filtration onto 96-well filter plates, washed extensively with water, and quantified by liquid scintillation.
(§4) The inhibitory activity of test compounds was determined by fitting results to dose-response curves using XLfit software.

in vitro = conditions: human
[3] = molecular target: HCV genotype 1b NS5B protein containing the S282T mutation (Hepatitis C virus genotype 1b (isolate Con1) (HCV), UniProt Q9WMX2, S2701T); assay: HCV polymerase enzyme assay, S282T mutant; type: biochemical; conditions: nucleoside triphosphate form, recombinant HCV genotype 1b NS5B
From the text: as §1
as §2, with “Reactions were incubated for two hours at 30° C.” left out
as §3, §4

[4] = Cytotoxicity evaluation, CellTiter-Blue Cell Viability Assay; conditions: human
[5] = Huh-7-derived Zluc cells, genotype 1b replicon, luciferase, 72 hours

Compound	CC50 (Zluc cells) [µM]	pEC50 (HCV genotype 1b replicon; [5])	pIC50 [2]	also measured
CCOc1nc(N)nc2c1ncn2[C@@H]1O[C@H](COP(=O)(N[C@H](C)C(=O)OC(C)C)Oc2ccccc2)[C@@H](CF)[C@H]1O (single isomer, unassigned) [Compound 125a Diastereomer 2]	> 50	< 5.00		Ms Liver TP AUC [1]: +++ (500 <+++ ≤1500); Ms Liver TP Cmax [1]: +++ (50 < +++ ≤100)
Nc1ncnc2c1ncn2[C@@H]1O[C@H](COP(=O)(O)OP(=O)(O)OP(=O)(O)O)[C@@H](CF)[C@H]1O [Compound 326]			5.00 to 6.00	
CCOc1nc(N)nc2c1ncn2[C@@H]1O[C@H](COP(=O)(N[C@H](C)C(=O)OC(C)C)Oc2ccccc2)[C@@H](CF)[C@H]1O (single isomer, unassigned) [Compound 125a Diastereomer 1]				CC50 (in vitro): > 50 µM; Ms Liver TP AUC [1]: +++ (500 <+++ ≤1500); Ms Liver TP Cmax [1]: +++ (50 < +++ ≤100); pEC50 (HCV genotype 1b replicon; Hepatitis C virus, Huh-7-derived Zluc cells, genotype 1b replicon, luciferase, 72 hours): < 5.00
Nc1nc2c(ncn2[C@@H]2O[C@H](COP(=O)(O)OP(=O)(O)OP(=O)(O)O)[C@@H](CF)[C@H]2O)c(=O)[nH]1 [Compound 327]			> 6.60	pIC50 [3]: > 6.60
CC(C)OC(=O)[C@@H](C)NP(=S)(OC[C@H]1O[C@@H](n2ccc(=O)[nH]c2=O)[C@H](O)[C@@H]1CO)Oc1ccccc1 (single isomer, unassigned) [Compound 122a Diastereomer 1]				CC50 at 72 h [4]: > 50 µM; pEC50 (HCV genotype 1b replicon; Hepatitis C virus, 72 h): < 5.00
Nc1ncnc2c1ncn2[C@@H]1O[C@H](COP(=O)(O)OP(=O)(O)OP(=O)(O)O)[C@@H](CO)[C@H]1O [Compound 307]			6.00 to 6.60	
CC(C)OC(=O)C(C)NP(=O)(NC(C)C(=O)OC(C)C)OC[C@H]1O[C@@H](n2ccc(=O)[nH]c2=O)[C@H](O)[C@@H]1CO (stereo partly shown) [Compound 116]	> 50	< 5.00		
Nc1nc2c(ncn2[C@@H]2O[C@H](COP(=O)(O)OP(=O)(O)OP(=O)(O)O)[C@@H](CO)[C@H]2O)c(=O)[nH]1 [Compound 308]			> 6.60	pIC50 [3]: > 6.60
CC(C)OC(=O)[C@@H](C)NP1(=O)OC[C@H]2[C@@H](O)[C@H](n3ccc(=O)[nH]c3=O)O[C@@H]2CO1 (single isomer, unassigned) [Compound 110a (Diastereomer 2)]	> 50	< 5.00		
Nc1nc(SCCO)c2ncn([C@@H]3O[C@H](CO)[C@@H](CO)[C@H]3O)c2n1 [Compound 209]	> 50	< 5.00		
